Measurements published in the supplement of paper PMC11208160.

Experiment: recombinant UMI read abundance after kanamycin selection (control-corrected) (log10(CPM+1)); higher = more efficient recombination; extreme values may be limits of the assay; sequences stand for … in AGTGCAGAGAAAATCGGCCAGTTTTCTCTGCCTGCAGTCCGCATGCCGTGGGACCCCTTGGGTTCTAACCTGTTGCCTAGATTTATGCAGCGGACTGCCTTTCTCCCAAAGTGATAAACCGG…AGGTTGGTTTCACT; site = the 11-nt donor
Summary of the method: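 In a pooled Escherichia coli screen for the IS621 bridge recombinase, donor and donor-binding-loop pairs were each placed with a 12-nt UMI on a plasmid bearing a promoterless kanamycin gene. This library was co-electroporated with a target plasmid encoding a fixed target and T7-inducible recombinase, and cells were plated either on IPTG (0.07 mM) plus kanamycin or without selection, in two replicates each. Recombinant UMIs were PCR-amplified across the donor–target junction and sequenced, and counts were converted to CPM, averaged over replicates, scaled by control-derived factors and reported as log10(CPM+1).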
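Further: IS621 bridge recombinase in Escherichia coli cells against a fixed T5 target plasmid.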

Sequence	recombinant UMI read abundance (log10)
CGCCACTCATGGACCGGTTTTCCCGGTAATCCGTATTTGCG (site CGCCACTCTCG)	2.05
CGCCCGACATGGACCGGTTTTCCCGGTAATCCGTATTTGCC (site CGCCCGACTGG)	2.5
CGCCCTACATGGACCGGTTTTCCCGGTAATCCGTATTTGAG (site CACCCTACTCT)	0.475
CGCCCTACATGGACCGGTTTTCCCGGTAATCCGTATTTGAG (site CCCCCTACTCT)	0.0131
CGCCCTACATGGACCGGTTTTCCCGGTAATCCGTATTTGAG (site CGCCCTACTCT)	1.44
CGCCCTACATGGACCGGTTTTCCCGGTAATCCGTATTTGAG (site CTCCCTACTCT)	0.0151
CGCCGCACATGGACCGGTTTTCCCGGTAATCCGTATTTGCT (site CGCCGAACTAG)	0
CGCCGCACATGGACCGGTTTTCCCGGTAATCCGTATTTGCT (site CGCCGCACTAG)	2.18
CGCCGCACATGGACCGGTTTTCCCGGTAATCCGTATTTGCT (site CGCCGGACTAG)	0.00439
CGCCGCACATGGACCGGTTTTCCCGGTAATCCGTATTTGCT (site CGCCGTACTAG)	0
CGCCGGACATGGACCGGTTTTCCCGGTAATCCGTATTTGCT (site CGCCGAACTAG)	2.52
CGCCGGACATGGACCGGTTTTCCCGGTAATCCGTATTTGCT (site CGCCGCACTAG)	0.00459
CGCCGGACATGGACCGGTTTTCCCGGTAATCCGTATTTGCT (site CGCCGGACTAG)	1.82
CGCCGGACATGGACCGGTTTTCCCGGTAATCCGTATTTGCT (site CGCCGTACTAG)	0
CGCCGTACATGGACCGGTTTTCCCGGTAATCCGTATTTGCT (site AGCCGTACTAG)	0.192
CGCCGTACATGGACCGGTTTTCCCGGTAATCCGTATTTGCT (site CACCGTACTAG)	0.33
CGCCGTACATGGACCGGTTTTCCCGGTAATCCGTATTTGCT (site CCCCGTACTAG)	0.907
CGCCGTACATGGACCGGTTTTCCCGGTAATCCGTATTTGCT (site CGACGTACTAG)	0.00883
CGCCGTACATGGACCGGTTTTCCCGGTAATCCGTATTTGCT (site CGCAGTACTAG)	0.331

Sequence	recombinant UMI read abundance (log10)
CGCCGTACATGGACCGGTTTTCCCGGTAATCCGTATTTGCT (site CGCCATACTAG)	0.922
CGCCGTACATGGACCGGTTTTCCCGGTAATCCGTATTTGCT (site CGCCCTACTAG)	0.301
CGCCGTACATGGACCGGTTTTCCCGGTAATCCGTATTTGCT (site CGCCGAACTAG)	0
CGCCGTACATGGACCGGTTTTCCCGGTAATCCGTATTTGCT (site CGCCGCACTAG)	0.796
CGCCGTACATGGACCGGTTTTCCCGGTAATCCGTATTTGCT (site CGCCGGACTAG)	0
CGCCGTACATGGACCGGTTTTCCCGGTAATCCGTATTTGCT (site CGCCGTACTAA)	0.0116
CGCCGTACATGGACCGGTTTTCCCGGTAATCCGTATTTGCT (site CGCCGTACTAC)	0.00604
CGCCGTACATGGACCGGTTTTCCCGGTAATCCGTATTTGCT (site CGCCGTACTAG)	1.59
CGCCGTACATGGACCGGTTTTCCCGGTAATCCGTATTTGCT (site CGCCGTACTAT)	0.0196
CGCCGTACATGGACCGGTTTTCCCGGTAATCCGTATTTGCT (site CGCCGTACTCG)	0.111
CGCCGTACATGGACCGGTTTTCCCGGTAATCCGTATTTGCT (site CGCCGTACTGG)	0
CGCCGTACATGGACCGGTTTTCCCGGTAATCCGTATTTGCT (site CGCCGTACTTG)	0.00335
CGCCGTACATGGACCGGTTTTCCCGGTAATCCGTATTTGCT (site CGCCGTCCTAG)	0
CGCCGTACATGGACCGGTTTTCCCGGTAATCCGTATTTGCT (site CGCCGTGCTAG)	0.065
CGCCGTACATGGACCGGTTTTCCCGGTAATCCGTATTTGCT (site CGCCGTTCTAG)	0
CGCCGTACATGGACCGGTTTTCCCGGTAATCCGTATTTGCT (site CGCCTTACTAG)	0
CGCCGTACATGGACCGGTTTTCCCGGTAATCCGTATTTGCT (site CGCGGTACTAG)	0
CGCCGTACATGGACCGGTTTTCCCGGTAATCCGTATTTGCT (site CGCTGTACTAG)	0
CGCCGTACATGGACCGGTTTTCCCGGTAATCCGTATTTGCT (site CGGCGTACTAG)	0.0034

Sequence	recombinant UMI read abundance (log10)
CGCCGTACATGGACCGGTTTTCCCGGTAATCCGTATTTGCT (site CGTCGTACTAG)	0
CGCCGTACATGGACCGGTTTTCCCGGTAATCCGTATTTGCT (site CTCCGTACTAG)	0
CGCCGTACATGGACCGGTTTTCCCGGTAATCCGTATTTGCT (site GGCCGTACTAG)	0.00569
CGCCGTACATGGACCGGTTTTCCCGGTAATCCGTATTTGCT (site TGCCGTACTAG)	0.0708
CGCCGTACATGGACCGGTTTTCCCGGTAATCCGTATTTGTT (site CGCCGTACTAA)	1.23
CGCCGTACATGGACCGGTTTTCCCGGTAATCCGTATTTGTT (site CGCCGTACTAC)	0.00659
CGCCGTACATGGACCGGTTTTCCCGGTAATCCGTATTTGTT (site CGCCGTACTAG)	0.486
CGCCGTACATGGACCGGTTTTCCCGGTAATCCGTATTTGTT (site CGCCGTACTAT)	0.0268
CGCCGTGCATGGACCGGTTTTCCCGGTAATCCGTATTTGCT (site CGCCGTACTAG)	1.29
CGCCGTGCATGGACCGGTTTTCCCGGTAATCCGTATTTGCT (site CGCCGTCCTAG)	0.00563
CGCCGTGCATGGACCGGTTTTCCCGGTAATCCGTATTTGCT (site CGCCGTGCTAG)	1.97
CGCCGTGCATGGACCGGTTTTCCCGGTAATCCGTATTTGCT (site CGCCGTTCTAG)	0.0147
CGCCGTTCATGGACCGGTTTTCCCGGTAATCCGTATTTGCT (site CGCCGTACTAG)	0
CGCCGTTCATGGACCGGTTTTCCCGGTAATCCGTATTTGCT (site CGCCGTCCTAG)	0.00374
CGCCGTTCATGGACCGGTTTTCCCGGTAATCCGTATTTGCT (site CGCCGTGCTAG)	0
CGCCGTTCATGGACCGGTTTTCCCGGTAATCCGTATTTGCT (site CGCCGTTCTAG)	2.41
CGCCTGACATGGACCGGTTTTCCCGGTAATCCGTATTTGAG (site CGCCTGACTCT)	0.947
CGCGAGTCATGGACCGGTTTTCCCGGTAATCCGTATTTGCC (site CGAGAGTCTGG)	0
CGCGAGTCATGGACCGGTTTTCCCGGTAATCCGTATTTGCC (site CGCGAGTCTGG)	2.43
